We go through eight molecules from paper PMC12400309 (RSC Advances, 2025).

The subject of series [1] is human gastric adenocarcinoma (SCM-1). In words: MTT cytotoxicity assay, SCM-1. The class given is cell-based. The following applies: read-out: IC50 SCM-1. In general terms: Tetrazolium assays rely on reduction of a dye to a coloured formazan, in cell work by metabolically active cells.
In series [2] the test system is colchicine resistant KB-C2 cell lines. The following applies: cited from earlier work.
The subject of series [3] is human oral squamous cell carcinoma (SCC2095). Nature of the series: MTT cytotoxicity assay, SCC2095. The class given is cell-based. The following applies: read-out: IC50 SCC2095.
Series [4] concerns human breast adenocarcinoma (MCF-7). In words: MTT cytotoxicity assay, MCF-7. Format: cell-based. The following applies: MCF7, read-out: IC50 MCF-7.
For series [5], the system named is human leukemia MOLT-4 cell line. The following applies: cited from earlier work.

Some results are limits rather than exact numbers.

What is called IC50 is the concentration that gives 50% inhibition. With `CC(=O)O[C@H]1C(=O)[C@@]2(C)[C@H]([C@H](OC(=O)c3ccccc3)[C@]3(O)C[C@H](OC(=O)[C@H](O)[C@@H](NC(=O)c4ccccc4)c4ccccc4)C(C)=C1C3(C)C)[C@]1(OC(C)=O)CO[C@@H]1C[C@@H]2O` [Paclitaxel], in series [1], the IC50 is 0.07 ± 0.002 µM.
As to cumingianol B, the “cytotoxicity against multi-drug resistant KB-C2 cancer cells (in words)” value in series [2] was “enhanced cytotoxicity”.
Consider `CC[C@H](CC[C@@H](C)[C@H]1CC[C@H]2[C@@H]3[C@H](O)C=C4C[C@@H](O)CC[C@]4(C)[C@H]3CC[C@]12C)C(C)C` [Compound 8, (3β,7α)-stigmast-5-ene-3,7-diol], for which the IC50 in series [3], in series [4] and in series [1] was > 30 µM in each case.
For the molecule `COc1cc(C=O)cc(OC)c1O` [Compound 14, 4-hydroxy-3,5-dimethoxybenzaldehyde], the IC50 in series [3], in series [4] and in series [1] was > 10 µM each time.
In the case of `CC(=O)OC[C@H]1O[C@@H](O[C@@H]2C[C@H]3C(C)(C)[C@H](OC(C)=O)CC[C@]3(C)[C@H]3CC[C@]45C[C@]4(CC[C@H]5[C@@H](C)C[C@@H](O)[C@H](O)C(C)(C)O)[C@@]32C)[C@H](O)[C@@H](O)[C@@H]1O` [cumingianoside A], the “ED50 cytotoxicity MOLT-4” value in series [5] is < 6.25 ng/mL.
Take `COc1cc([C@@H]2c3cc4c(cc3[C@@H](O[C@@H]3O[C@@H]5CO[C@@H](C)O[C@H]5[C@H](O)[C@H]3O)[C@H]3COC(=O)[C@H]23)OCO4)cc(OC)c1O` [Etoposide]: the half-maximal inhibitory concentration (IC50) in series [3] turned out to be 2.5 ± 0.2 µM.
On to dycusin A, for which the “cytotoxicity against multi-drug resistant KB-C2 cancer cells (in words)” value in series [2] is “enhanced cytotoxicity”.
Consider `COC(C)(C)[C@@H](O)[C@H](O)C[C@H](C)[C@@H]1CC[C@]23C[C@]12CC[C@@H]1[C@@]2(C)CC[C@@H](OC(C)=O)C(C)(C)[C@@H]2C[C@@H](O[C@@H]2O[C@H](COC(C)=O)[C@@H](O)[C@H](O)[C@H]2O)[C@]13C` [cumingianoside C], for which the “ED50 cytotoxicity MOLT-4” value in series [5] is < 4.5 ng/mL.
